Measured values from patent US8637679B2, “Process for the isolation of organic compounds useful for the treatment of cancer” (Council of Scientific and Industrial Research, priority 2011, dated 2014).
“Also recorded” adds a separate entry of the source. Like-named read-outs stand apart in the source and are kept apart here.

Assays:
[1] = tested on: MIAPaCa-2; experiment: Transmigration assay (EGF-driven); type: cell-based, human; conditions: 24 hrs exposure
Procedure: MIAPaCa-2 cells were treated with mahanine in dose responsive manner for 24 hrs. Afterward, different growth factors (VEGF, EGF and PDGF) were dissolved in medium at a final concentration of 20 ng/ml and added into the outer well of the 24-transwell plate (PromoCell Heidelberg, Germany) as per manufacturer instruction. Mahanine-pretreated cells (5×10^4 cells/well/500 μl) were added into the insert and incubated at in a humidified incubator (37° C., 5% CO2) for 6 hours and subsequently invaded cells were fixed with chilled methanol and stained with 0.1% crystal violet. Random fields were photographed and quantified under the phase contrast microscope.

[2] = tested on: cancer cell lines; experiment: MTT assay, pooled cancer cell lines of several cancer types; type: cell-based, human
Procedure: (§1) Human cervical cancer cell lines (HeLa, ME-180 and SiHa), brain tumor cell lines (U87MG, U373MG, U87MG EGFRvIII, T98G, A172 and LN229), lymphoid leukemia (MOLT-3, MOLT-4, REH and CEMC-7), myloid leukemia (K562), pancreatic cancer (MIAPaCa-2, AsPC-1, Panc-1 and Panc 10.05), lung cancer (A549) and colon cancer (HCT116 and SW480) cell lines from American Type Culture Collection, Manassas, Va., USA were grown in IMDM or RPMI (cell specific) Medium supplemented with 10% fetal bovine serum and 1% antibiotic-antimycotic. Cells were cultured in 37° C. in an atmosphere of 5% CO2.
(§2) Viability of cancer cell lines after treatment as at the indicated times was determined by MTT assay. Briefly, 10,000 cells were plated in triplicate in 96 well plates and incubated for 24 and 48 hours in complete media in presence of varying dose of mahanine (0-50 μM). 100 ug MTT was added in each well. Incubate the plate for 1-4 hours at 37° C. and humidified 5% CO2 atmosphere. Absorbance was recorded at 550 nm with 96 well plate readers.

[3] = tested on: WI-38; experiment: MTT cell viability assay, WI-38 normal cells; type: cell-based, human
Procedure: as §2

[4] = tested on: endoplasmic reticulum (ER) stress in MIAPaCa-2 cells; experiment: ER-Tracker Blue-White DPX confocal microscopy; type: cell-based, human; conditions: MIAPaCa-2, 18 hrs, 10 μM and 20 μM mahanine
Procedure: MIAPaCa-2 cells were seeded in 8 chambered polystyrene culture slide [BD Falcon, USA] at […] cells per well in RPMI-1640 medium supplemented with 10% FBS. After 24 hrs of seeding, cells were exposed to different concentration of mahanine along with vehicle control. Cells were washed with 1× Hanks Balanced Salt Solution (HBSS) after 18 hrs of incubation and processed for ER staining. Pre-warmed ER-Tracker Blue White DPX (Molecular Probes) was added to the cells at 500 nM working concentration and incubated for 30 mins at 37° C. at 5% CO2 incubator. The loading solution was removed and cells were then washed again in HBSS and samples were analyzed using confocal laser scanning microscope (NICON A1-R, NICON, Japan). Images were recorded using 60×/1.40 oil plan Apo-N objectives at calibrated magnification.

[5] = tested on: A549; experiment: MTT cell viability assay, A549; type: cell-based, human; conditions: Homo sapiens; A549, 48 hrs
Procedure: as §1, §2

[6] = tested on: MIAPaCa-2; experiment: Scratch-wound haptotaxis assay, MIAPaCa-2; type: cell-based, human; conditions: MIAPaCa-2, highest treated cells, 6 hrs
Procedure: Highly and moderately invasive pancreatic cancer cell lines, MIAPaCa-2 and BxPC3 (1×10^6/ml/well) were cultured to >90% confluence in 6 well plate. Consequently, cell were rinsed with PBS and starved in low serum media (2 ml containing 0.5%-0.1% serum in RPMI-1640 for MIAPaCa-2 and BxPC-3) for overnight. On the following day, three separate scratch-wounds were made through the confluent cells. Scratched plate was rinsed with PBS and replaced with serum starved media containing successive doses of mahanine or EtOH for 6 hrs. Picture was taken by using phase contrast at 10× accordingly.

[7] = tested on: K562; experiment: MTT cell viability assay, K562; type: cell-based, human; conditions: Homo sapiens; K562, 48 hrs
Procedure: as §1, §2

[8] = tested on: A172; experiment: MTT cell viability assay, A172; type: cell-based, human; conditions: Homo sapiens, A 172; A172, 48 hrs
Procedure: as §1, §2

[9] = tested on: MIAPaCa-2; experiment: MTT cell viability assay, MIAPaCa-2; type: cell-based, human; conditions: Homo sapiens, MIA PaCa-2; MIAPaCa-2, 48 hrs
Procedure: as §1, §2

[10] = target: Hsp90α (Homo sapiens, UniProt P07900); experiment: γ-ATP sepharose binding assay, Hsp90α; conditions: mahanine at 50 and 100 μM
Procedure: 5 μg of purified Hsp90α and Hsp90β were pre-incubated separately on ice with 200 μL incubation buffer (10 mM Tris-Hcl, 50 mM KCl, 5 mM MgCl2, 2 mM DTT, 20 mM Na2MoO4, 0.01% NP40, pH 7.5) containing mahanine or 17-AAG and incubated for 30 mins on ice. After the incubation, 25 μL pre-equilibrated γ-phosphate ATP sepharose added and again incubated at 37° C. with frequent agitation.
Sepharose subsequently washed and analyzed by SDS-PAGE. Then the blot was probed with anti Hsp90 antibody and developed by ECL.

[11] = tested on: Molt-4; experiment: MTT cell viability assay, Molt-4; type: cell-based, human; conditions: Homo sapiens; Molt-4, 48 hrs
Procedure: as §1, §2

[12] = tested on: LN229; experiment: MTT cell viability assay, LN229; type: cell-based, human; conditions: Homo sapiens, LN-229; LN229, 48 hrs
Procedure: as §1, §2

[13] = tested on: Panc1; experiment: MTT cell viability assay, Panc1; type: cell-based, human; conditions: Homo sapiens, PANC-1; Panc1, 48 hrs
Procedure: as §1, §2

[14] = tested on: HCT116; experiment: MTT cell viability assay, HCT116; type: cell-based, human; conditions: Homo sapiens, HCT-116; HCT116, 48 hrs
Procedure: as §1, §2

CC(C)=CCCC1(C)C=Cc2c(c(C)cc3c2[nH]c2cc(O)ccc23)O1 (stereo not shown) [Mahanine, mahanine]
EGF-driven MIAPaCa-2 migration, % of controls ([1]; ~0.6×IC50 (10 μM)): 48.6 % of controls | EGF-driven MIAPaCa-2 migration ([1]; ~1×IC50, 15 μM): nearly complete inhibition | IC50 ([2]; Homo sapiens, Pancreatic cancer cell, 48 h, range, 48 hr treatment, read-out: IC50, glioma, cervical and pancreatic cancer cell lines): 11 to 14 µM | inhibition at 20 µM ([2]; Homo sapiens, mahanine at 20 μM, read-out: inhibition of cancer cells): 75 to 85% | IC50 ([2]; range over glioma and cervical cancer cell lines, 48 hr, listed as 1b, read-out: IC50, glioma and cervical cancer cells): 30 to 50 µM | IC50 ([2]; range over glioma and cervical cancer cell lines, 48 hr, read-out: IC50, glioma and cervical cancer cells): 12 to 17 µM | IC50 ([3]; Homo sapiens, WI-38 normal cell line, 48 hrs): > 65 µM | sensitivity of WI-38 cells ([3]; normal human lung fibroblast cells, in vitro): less sensitive; also recorded: minimum sensitivity | ER-Tracker staining (ER stress) [4]: significantly increased blue staining | IC50 [5]: 12.8 ± 1.1 µM | wound closure / migratory cells [6]: < 5% | IC50 [7]: 13 ± 1.1 µM | IC50 [8]: 11.6 ± 1 µM | IC50 [9]: 13.9 µM | effect on ATP binding to purified Hsp90 [10]: could not reduce | IC50 [11]: 10.7 ± 0.6 µM | IC50 [12]: 13.7 ± 0.3 µM | IC50 [13]: 16.5 ± 0.2 µM | IC50 [14]: 13.5 ± 0.8 µM
